From PubChem BioAssay AID1259407 (Chemical Carcinogenesis Research Information System (CCRIS), 2018)
Active and inactive are the calls of the source. No rule for the calls is given here.

System: CCRIS mutagenicity, Ames/micronucleus/aberration tests
Assay: CCRIS mutagenicity studies

CCCCC(CC)COC(=O)c1ccc(N(C)C)c([N+](=O)[O-])c1 (stereo not given)
mutagenic call (Test System: AMES SALMONELLA TYPHIMURIUM, Strain/Indicator: TA98, Metabolic Activation: HAMSTER, LIVER, S-9, AROCLOR 1254 (10%), Method: STANDARD PLATE): active; positive | mutagenic call (Test System: AMES SALMONELLA TYPHIMURIUM, Strain/Indicator: TA98, Metabolic Activation: HAMSTER, LIVER, S-9, AROCLOR 1254, Method: STANDARD PLATE): active; positive | mutagenic call (Test System: AMES SALMONELLA TYPHIMURIUM, Strain/Indicator: TA98, Metabolic Activation: NONE, Method: STANDARD PLATE): active; positive | mutagenic call (Test System: AMES SALMONELLA TYPHIMURIUM, Strain/Indicator: TA98, Metabolic Activation: RAT, LIVER, S-9, AROCLOR 1254 (10%), Method: STANDARD PLATE): active; positive | mutagenic call (Test System: AMES SALMONELLA TYPHIMURIUM, Strain/Indicator: TA98, Metabolic Activation: RAT, LIVER, S-9, AROCLOR 1254, Method: STANDARD PLATE): active; positive | mutagenic call (Test System: AMES SALMONELLA TYPHIMURIUM, Strain/Indicator: TA100, Metabolic Activation: HAMSTER, LIVER, S-9, AROCLOR 1254 (10%), Method: STANDARD PLATE): inactive; negative | mutagenic call (Test System: AMES SALMONELLA TYPHIMURIUM, Strain/Indicator: TA100, Metabolic Activation: HAMSTER, LIVER, S-9, AROCLOR 1254, Method: STANDARD PLATE): inactive; negative | mutagenic call (Test System: AMES SALMONELLA TYPHIMURIUM, Strain/Indicator: TA100, Metabolic Activation: NONE, Method: STANDARD PLATE): inactive; negative | mutagenic call (Test System: AMES SALMONELLA TYPHIMURIUM, Strain/Indicator: TA100, Metabolic Activation: RAT, LIVER, S-9, AROCLOR 1254 (10%), Method: STANDARD PLATE): inactive; negative | mutagenic call (Test System: AMES SALMONELLA TYPHIMURIUM, Strain/Indicator: TA100, Metabolic Activation: RAT, LIVER, S-9, AROCLOR 1254, Method: STANDARD PLATE): inactive; negative | mutagenic call (Test System: AMES SALMONELLA TYPHIMURIUM, Strain/Indicator: TA1535, Metabolic Activation: HAMSTER, LIVER, S-9, AROCLOR 1254 (10%), Method: STANDARD PLATE): inactive; negative | mutagenic call (Test System: AMES SALMONELLA TYPHIMURIUM, Strain/Indicator: TA1535, Metabolic Activation: HAMSTER, LIVER, S-9, AROCLOR 1254, Method: STANDARD PLATE): inactive; negative | mutagenic call (Test System: AMES SALMONELLA TYPHIMURIUM, Strain/Indicator: TA1535, Metabolic Activation: NONE, Method: STANDARD PLATE): inactive; negative | mutagenic call (Test System: AMES SALMONELLA TYPHIMURIUM, Strain/Indicator: TA1535, Metabolic Activation: RAT, LIVER, S-9, AROCLOR 1254 (10%), Method: STANDARD PLATE): inactive; negative | mutagenic call (Test System: AMES SALMONELLA TYPHIMURIUM, Strain/Indicator: TA1535, Metabolic Activation: RAT, LIVER, S-9, AROCLOR 1254, Method: STANDARD PLATE): inactive; negative | mutagenic call (Test System: AMES SALMONELLA TYPHIMURIUM, Strain/Indicator: TA1537, Metabolic Activation: HAMSTER, LIVER, S-9, AROCLOR 1254 (10%), Method: STANDARD PLATE): active; positive | mutagenic call (Test System: AMES SALMONELLA TYPHIMURIUM, Strain/Indicator: TA1537, Metabolic Activation: HAMSTER, LIVER, S-9, AROCLOR 1254, Method: STANDARD PLATE): active; positive | mutagenic call (Test System: AMES SALMONELLA TYPHIMURIUM, Strain/Indicator: TA1537, Metabolic Activation: NONE, Method: STANDARD PLATE): active; positive | mutagenic call (Test System: AMES SALMONELLA TYPHIMURIUM, Strain/Indicator: TA1537, Metabolic Activation: RAT, LIVER, S-9, AROCLOR 1254 (10%), Method: STANDARD PLATE): active; positive | mutagenic call (Test System: AMES SALMONELLA TYPHIMURIUM, Strain/Indicator: TA1537, Metabolic Activation: RAT, LIVER, S-9, AROCLOR 1254, Method: STANDARD PLATE): active; positive | mutagenic call (Test System: AMES SALMONELLA TYPHIMURIUM, Strain/Indicator: TA1538, Metabolic Activation: HAMSTER, LIVER, S-9, AROCLOR 1254 (10%), Method: STANDARD PLATE): active; positive | mutagenic call (Test System: AMES SALMONELLA TYPHIMURIUM, Strain/Indicator: TA1538, Metabolic Activation: HAMSTER, LIVER, S-9, AROCLOR 1254, Method: STANDARD PLATE): active; positive | mutagenic call (Test System: AMES SALMONELLA TYPHIMURIUM, Strain/Indicator: TA1538, Metabolic Activation: NONE, Method: STANDARD PLATE): active; positive | mutagenic call (Test System: AMES SALMONELLA TYPHIMURIUM, Strain/Indicator: TA1538, Metabolic Activation: RAT, LIVER, S-9, AROCLOR 1254 (10%), Method: STANDARD PLATE): active; positive | mutagenic call (Test System: AMES SALMONELLA TYPHIMURIUM, Strain/Indicator: TA1538, Metabolic Activation: RAT, LIVER, S-9, AROCLOR 1254, Method: STANDARD PLATE): active; positive

COC(=O)C1Cc2c([nH]c3ccc([N+](=O)[O-])cc23)C(C)N1N=O (stereo not given)
mutagenic call (Test System: AMES SALMONELLA TYPHIMURIUM, Strain/Indicator: TA98(NR), Metabolic Activation: NONE, Method: STANDARD PLATE): active; positive | mutagenic call (Test System: AMES SALMONELLA TYPHIMURIUM, Strain/Indicator: TA98(NR), Metabolic Activation: RAT, LIVER, S-9, AROCLOR 1254, Method: STANDARD PLATE): inactive; negative

O=c1[nH]c(=O)n([C@H]2C[C@H](O)[C@@H](CO)O2)cc1I
mutagenic call (Test System: AMES SALMONELLA TYPHIMURIUM, Strain/Indicator: TA97, Metabolic Activation: NONE, Method: PREINCUBATION): inactive; negative | mutagenic call (Test System: AMES SALMONELLA TYPHIMURIUM, Strain/Indicator: TA97, Metabolic Activation: RAT, LIVER, S-9, AROCLOR 1254, Method: PREINCUBATION): inactive; negative | mutagenic call (Test System: AMES SALMONELLA TYPHIMURIUM, Strain/Indicator: TA98, Metabolic Activation: NONE, Method: PREINCUBATION): inactive; negative | mutagenic call (Test System: AMES SALMONELLA TYPHIMURIUM, Strain/Indicator: TA98, Metabolic Activation: RAT, LIVER, S-9, AROCLOR 1254, Method: PREINCUBATION): inactive; negative | mutagenic call (Test System: AMES SALMONELLA TYPHIMURIUM, Strain/Indicator: TA100, Metabolic Activation: NONE, Method: PREINCUBATION): inactive; negative | mutagenic call (Test System: AMES SALMONELLA TYPHIMURIUM, Strain/Indicator: TA100, Metabolic Activation: RAT, LIVER, S-9, AROCLOR 1254, Method: PREINCUBATION): inactive; negative | mutagenic call (Test System: AMES SALMONELLA TYPHIMURIUM, Strain/Indicator: TA102, Metabolic Activation: NONE, Method: PREINCUBATION): inactive; negative | mutagenic call (Test System: AMES SALMONELLA TYPHIMURIUM, Strain/Indicator: TA102, Metabolic Activation: RAT, LIVER, S-9, AROCLOR 1254, Method: PREINCUBATION): inactive; negative | mutagenic call (Test System: AMES SALMONELLA TYPHIMURIUM, Strain/Indicator: TA104, Metabolic Activation: NONE, Method: PREINCUBATION): inactive; negative | mutagenic call (Test System: AMES SALMONELLA TYPHIMURIUM, Strain/Indicator: TA104, Metabolic Activation: RAT, LIVER, S-9, AROCLOR 1254, Method: PREINCUBATION): inactive; negative | mutagenic call (Test System: AMES SALMONELLA TYPHIMURIUM, Strain/Indicator: TA1535, Metabolic Activation: NONE, Method: PREINCUBATION): inactive; negative | mutagenic call (Test System: AMES SALMONELLA TYPHIMURIUM, Strain/Indicator: TA1535, Metabolic Activation: RAT, LIVER, S-9, AROCLOR 1254, Method: PREINCUBATION): inactive; negative | mutagenic call (Test System: AMES SALMONELLA TYPHIMURIUM, Strain/Indicator: TA1537, Metabolic Activation: NONE, Method: PREINCUBATION): inactive; negative | mutagenic call (Test System: AMES SALMONELLA TYPHIMURIUM, Strain/Indicator: TA1537, Metabolic Activation: RAT, LIVER, S-9, AROCLOR 1254, Method: PREINCUBATION): inactive; negative | mutagenic call (Test System: AMES SALMONELLA TYPHIMURIUM, Strain/Indicator: TA1538, Metabolic Activation: NONE, Method: PREINCUBATION): inactive; negative | mutagenic call (Test System: AMES SALMONELLA TYPHIMURIUM, Strain/Indicator: TA1538, Metabolic Activation: RAT, LIVER, S-9, AROCLOR 1254, Method: PREINCUBATION): inactive; negative | mutagenic call (Test System: CHINESE HAMSTER V-79, Strain/Indicator: V-79/8-AZAGUANINE, Metabolic Activation: NONE): active; positive | mutagenic call (Test System: UDS RODENT HEPATOCYTES, Strain/Indicator: THY INCORP, Metabolic Activation: NONE): inactive; negative
